Laboratory results reported in patent US10889589B2, “Bicyclic urea, thiourea, guanidine and cyanoguanidine compounds useful for the treatment of pain” (Array BioPharma Inc., priority 2012, dated 2021).

Molecular target: recombinant human TrkA (Homo sapiens (Human), UniProt P04629)
Experiment: TrkA Kinase Binding Assay (LanthaScreen Eu)
Conditions: averaged IC50; read-out: TrkA Enzyme IC50
Method: TrkA binding activity was determined in a TrkA LanthaScreen™ Eu Kinase Binding Assay. 5 nM His-tagged recombinant human TrkA (6HIS tagged cytoplasmic domain from Invitrogen, Catalog No. PV3144) was incubated with 4 nM Alexa-Fluor® Tracer 236 (Invitrogen Cat. No. PV5592), 2 nM biotinylated anti-His (Invitrogen Cat. No. PV6090), and 2 nM europium-labeled Streptavidin (Invitrogen Cat. No. PV5899), in buffer (25 mM MOPS, pH 7.5, 5 mM MgCl2, 0.005% Triton X-100). Three fold serial dilutions of compounds of the invention in DMSO were added to a final percentage of 2% DMSO. After 60-minute incubation at 22° C., the reaction was measured using the EnVision mutlimode plate reader (PerkinElmer) via TR-FRET dual wavelength detection at […]. The percent of control was calculated using a ratiometric emission factor. The IC50 values were determined by fitting a four parameter model to the percent of control data.
Table A provides averaged IC50 values for compounds of the invention when tested in the assay of Example A, where A represents an averaged IC50 value <100 nM; B represents an averaged IC50 value from 100 to 1,000 nM, and C represents an averaged IC50 value between >1,000 nM and 3,000 nM.

Sequence of recombinant human TrkA (P04629 440-796): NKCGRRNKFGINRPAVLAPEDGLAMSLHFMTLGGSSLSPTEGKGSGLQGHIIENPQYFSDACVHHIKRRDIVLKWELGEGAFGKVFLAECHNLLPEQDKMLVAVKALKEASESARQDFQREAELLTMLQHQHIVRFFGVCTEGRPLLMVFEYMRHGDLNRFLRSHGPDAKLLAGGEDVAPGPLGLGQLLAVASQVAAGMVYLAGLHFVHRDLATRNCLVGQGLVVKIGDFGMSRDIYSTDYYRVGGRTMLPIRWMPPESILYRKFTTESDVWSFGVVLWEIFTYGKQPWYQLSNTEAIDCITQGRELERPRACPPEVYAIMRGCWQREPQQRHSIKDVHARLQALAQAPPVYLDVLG

Row | IC50 [nM] | SMILES
1 | < 100 | Cc1ncc(-c2nn(-c3ccccc3)c(NC(=O)N[C@@H]3c4ccccc4C4(CC4)[C@H]3O)c2C)cn1 (relative stereo) [Example 56, 1-(trans-2′-hydroxy-2′,3′-dihydrospiro[cyclopropane-1,1′-inden]-3′-yl)-3-(4-methyl-3-(2-methylpyrimidin-5-yl)-1-phenyl-1H-pyrazol-5-yl)urea]
2 | < 100 | COc1ncc(-c2nn(-c3ccccc3)c(NC(=O)N[C@@H]3c4ccccc4C4(CC4)[C@H]3O)c2C)cn1 (relative stereo) [Example 57, 1-(trans-2′-hydroxy-2′,3′-dihydrospiro[cyclopropane-1,1′-inden]-3′-yl)-3-(3-(2-methoxypyrimidin-5-yl)-4-methyl-1-phenyl-1H-pyrazol-5-yl)urea]
3 | < 100 | Cc1c(-c2cnn(C)c2)nn(-c2ccccc2)c1NC(=O)N[C@@H]1c2cc(F)c(F)cc2C2(CC2)[C@H]1O (relative stereo) [Example 58, 1-(trans-5′,6′-difluoro-2′-hydroxy-2′,3′-dihydrospiro[cyclopropane-1,1′-inden]-3′-yl)-3-(1′,4-dimethyl-1-phenyl-1H, 1′H-[3,4′-bipyrazol]-5-yl)urea]
4 | < 100 | COc1nn(-c2ccccc2)c(NC(=O)N[C@@H]2c3cc(F)c(F)cc3C3(CC3)[C@H]2O)c1C (relative stereo) [Example 62, 1-(trans-5′,6′-difluoro-2′-hydroxy-2′,3′-dihydrospiro[cyclo-propane-1,1′-inden]-3′-yl)-3-(3-methoxy-4-methyl-1-phenyl-1H-pyrazol-5-yl)urea]
5 | < 100 | Cc1c(-c2cnn(C)c2)nn(-c2ccccc2)c1NC(=O)N[C@@H]1c2cc(F)ccc2C2(CC2)[C@H]1O (relative stereo) [Example 63, 1-(1′,4-dimethyl-1-phenyl-1H1′H-[3,4′-bipyrazol]-5-yl)-3-(trans-5′-fluoro-2′-hydroxy-2′,3′-dihydrospiro[cyclopropane-1,1′-inden]-3′-yl)urea]
6 | < 100 | Cc1c(-c2cnn(C)c2)nn(-c2ccccc2)c1NC(=O)N[C@@H]1c2ccc(F)cc2C2(CC2)[C@H]1O (relative stereo) [Example 64, 1-(1′,4-dimethyl-1-phenyl-1H,1′H-[3,4′-bipyrazol]-5-yl)-3-(trans-6′-fluoro-2′-hydroxy-2′,3′-dihydrospiro[cyclopropane-1,1′-inden]-3′-yl)urea]
7 | < 100 | Cc1c(NC(=O)N[C@@H]2c3ccccc3C(C)(C)C[C@H]2O)n(-c2ccccc2)[nH]c1=O (relative stereo) [Example 95, 1-(trans-2-hydroxy-4,4-dimethyl-1,2,3,4-tetrahydronaphthalen-1-yl)-3-(4-methyl-5-oxo-2-phenyl-2,5-dihydro-1H-pyrazol-3-yl)urea]
8 | 1000 to 3000 | Cc1nn(-c2ccccc2)c(NC(=O)N[C@@H]2c3cc(C(N)=O)ccc3C(C)(C)C[C@H]2O)c1C (relative stereo) [Example 98, trans-8-(3-(3,4-dimethyl-1-phenyl-1H-pyrazol-5-yl)ureido)-7-hydroxy-5,5-dimethyl-5,6,7,8-tetrahydronaphthalene-2-carboxamide]
9 | < 100 | COC(=O)c1ccc2c(c1)[C@@H](NC(=O)Nc1c(C)c(C)nn1-c1ccccc1)[C@H](O)CC2(C)C (relative stereo) [Example 99, trans-methyl 8-(3-(3,4-dimethyl-1-phenyl-1H-pyrazol-5-yl)ureido)-7-hydroxy-5,5-dimethyl-5,6,7,8-tetrahydronaphthalene-2-carboxylate]
10 | < 100 | Cc1c(OCC2CCN(C)CC2)nn(-c2ccccc2)c1NC(=O)N[C@@H]1c2ccccc2CC[C@H]1O (relative stereo) [Example 123, 1-(trans-2-hydroxy-1,2,3,4-tetrahydro-naphthalen-1-yl)-3-(4-methyl-3-((1-methylpiperidin-4-yl)methoxy)-1-phenyl-1H-pyrazol-5-yl)urea]
